Experimental findings from patent publication US9657006B2, “Macrocyclic factor VIIa inhibitors” (BRISTOL-MYERS SQUIBB COMPANY, priority 2013, dated 2017) are described below.

Where a name gives a salt, the structure may show the parent alone.

By Ki is commonly meant the equilibrium dissociation constant of an inhibitor or competing ligand from its target. A low value points to higher affinity.

The target in this test is T1, FVIIa (Homo sapiens, UniProt P08709).
T1 construct: with about 1% of the total amount in the proteolytically active form factor VIIa
T1 sequence (P08709 213-466 limits assumed): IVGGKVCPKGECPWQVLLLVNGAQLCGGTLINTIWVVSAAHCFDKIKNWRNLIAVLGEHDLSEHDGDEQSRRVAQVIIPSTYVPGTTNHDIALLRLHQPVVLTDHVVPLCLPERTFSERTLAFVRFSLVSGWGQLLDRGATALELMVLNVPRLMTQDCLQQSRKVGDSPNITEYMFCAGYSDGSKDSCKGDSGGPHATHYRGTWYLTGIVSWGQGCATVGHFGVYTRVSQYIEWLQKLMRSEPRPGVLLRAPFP
T1 sequence (P08709 61-212 limits assumed): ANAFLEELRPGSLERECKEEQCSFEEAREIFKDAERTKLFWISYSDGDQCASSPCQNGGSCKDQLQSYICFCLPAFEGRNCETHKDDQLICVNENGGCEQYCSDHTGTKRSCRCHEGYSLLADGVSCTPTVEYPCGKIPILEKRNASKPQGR
T1 sequence (P13726 33-295 partner): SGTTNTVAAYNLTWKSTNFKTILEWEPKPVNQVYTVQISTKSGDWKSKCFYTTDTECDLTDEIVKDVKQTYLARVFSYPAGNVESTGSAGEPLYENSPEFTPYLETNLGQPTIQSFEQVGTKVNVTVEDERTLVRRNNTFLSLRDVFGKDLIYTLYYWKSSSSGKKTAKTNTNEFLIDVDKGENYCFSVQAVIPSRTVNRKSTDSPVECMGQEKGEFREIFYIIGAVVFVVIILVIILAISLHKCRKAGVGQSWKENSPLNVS
The test can be described thus: FVIIa Ki (25° C.): FVIIa peptide substrate assay. The class given is biochemical. Particulars: S2288 peptide substrate, full-length human TF. The procedure: The effectiveness of compounds of the present invention as inhibitors of the coagulation Factors, VIIa, IXa, Xa, XIa, XIIa, plasma kallikrein or thrombin, tissue kallikrein and activated protein C, can be determined using a relevant purified serine protease, respectively, and an appropriate synthetic substrate. The rate of hydrolysis of the chromogenic or fluorogenic substrate by the relevant serine protease was measured both in the absence and presence of compounds of the present invention. […] A decrease in the rate of absorbance or fluorescence change in the presence of inhibitor is indicative of enzyme inhibition. Such methods are known to one skilled in the art. The results of this assay are expressed as the inhibitory constant, Ki.
a. FVIIa Ki (25° C.): FVIIa Peptide Substrate Assay
S2288 (range of concentrations) and FVIIa inhibitor were incubated for 15 minutes (min) at 25° C. Reactions were initiated by addition of a solution of full-length human TF (6 nM), FVIIa (0.75 nM), and PCPS (25 μM). FVIIa hydrolyses S2288, which was monitored for up to 60 min at 405 nm. Steady-state reaction velocity data (vs) was globally fit to Equation 1 for competitive inhibition. vs=Vmax[S]/([S]+Km(1+[I]/Ki)) (Eq. 1) where Vmax is maximum velocity, [S] is substrate concentration, Km is the Michaelis-Menten constant, [I] is the inhibitor concentration, and Ki is the inhibitor dissociation constant (GraFit, version 5, Erithacus Software Ltd, West Sussex, UK).
Molecule `C[C@H]1CC(=O)Nc2ccc(S(=O)(=O)C3CC3)c(c2)CN(C)C(=O)[C@H](Nc2ccc3c(N)ncc(F)c3c2)c2ccc(OCC(F)F)c1c2` (single isomer, unassigned) [Example 32, trifluoroacetic acid salt] gave an inhibition constant (Ki) of 31 nM.

For the molecule `COc1ccc2cc1CCC(=O)Nc1ccc(S(=O)(=O)C(F)(F)F)c(c1)CN(C)C(=O)[C@@H]2Nc1ccc2c(N)nccc2c1` (single isomer, unassigned) [Example 34, trifluoroacetic acid salt], the affinity corresponds to a Ki of 5 nM.

Turning to `CN1CCc2cccc(c2)[C@@H](Nc2ccc(C(=N)N)cc2)C(=O)N(C)Cc2cc(cc(F)c2OC(F)F)NC1=O` (single isomer, unassigned) [Example 35, trifluoroacetic acid salt], the inhibition constant (Ki) came out at 6 nM.

For `C[C@@H]1CC(=O)Nc2ccc(S(=O)(=O)C3CC3)c(c2)CN(C)C(=O)[C@H](Nc2ccc3c(N)ncc(F)c3c2)c2ccc(OCC(F)F)c1c2` (single isomer, unassigned) [Example 38, trifluoroacetic acid salt], the affinity corresponds to a Ki of 5 nM. The Ki values of the last two molecules are within 1.5-fold of each other.

Take `CN1CCc2cc(ccc2OCC(F)F)[C@@H](Nc2ccc3c(N)ncc(F)c3c2)C(=O)N(C)Cc2cc(ccc2S(=O)(=O)C(F)F)NC1=O` (single isomer, unassigned) [Example 39, trifluoroacetic acid salt]: the affinity corresponds to a Ki of 120 nM.

For `CN1Cc2cc(cc(F)c2OCC(F)F)NC(=O)CCc2cc(ccc2OCC(F)F)[C@@H](Nc2ccc(C(=N)N)cc2)C1=O` (single isomer, unassigned) [Example 40, trifluoroacetic acid salt], the inhibition constant (Ki) is 5 nM.

`CN1Cc2cc(ccc2S(=O)(=O)C2CC2)NC(=O)NCCc2cccc(c2)[C@@H](Nc2ccc3c(N)ncc(F)c3c2)C1=O` (single isomer, unassigned) [Example 41, trifluoroacetic acid salt] gave a Ki of 17 nM.

With `CN1Cc2cc(cc(F)c2OC(CF)CF)NC(=O)CCc2cc(ccc2OCC(F)F)[C@@H](Nc2ccc(C(=N)N)cc2)C1=O` (single isomer, unassigned) [Example 42, trifluoroacetic acid salt], the affinity, expressed as Ki, was 5 nM.

Turning to `C[C@@H]1CC(=O)Nc2ccc(OC(F)F)c(c2)CN(C)C(=O)[C@H](Nc2ccc(C(=N)N)cc2)c2ccc(OCC(F)F)c1c2` (single isomer, unassigned) [Example 43, trifluoroacetic acid salt], the inhibitory constant (Ki) came to 5 nM.

On to `CN1Cc2cc(ccc2S(=O)(=O)C2CC2)NC(=O)OCCc2cccc(c2)[C@@H](Nc2ccc3c(N)nccc3c2)C1=O` [Example 1, (R)-5-(1-Amino-isoquinolin-6-ylamino)-19-cyclopropanesulfonyl-3-methyl-13-oxa-3,15-diaza-tricyclo[14.3.1.1^6,10]henicosa-1(19),6(21),7,9,16(20),17-hexaene-4,14-dione trifluoroacetic acid salt+Enantiomer], for which the inhibition constant Ki stood at 188 nM.

For the molecule `CN1Cc2cc(ccc2S(=O)(=O)C2CC2)NC(=O)OCC2(CC2)c2cccc(c2)C(Nc2ccc3c(N)nccc3c2)C1=O` (stereo not drawn) [Example 5, trifluoroacetic acid salt], the Ki worked out at 950 nM. Against the preceding molecule, the Ki is about 5.1-fold higher.

`COc1ccc2cc1COCC(=O)Nc1ccc(S(=O)(=O)C3CC3)c(c1)CN(C)C(=O)[C@@H]2Nc1ccc2c(N)nccc2c1` [Example 9, (R)-5-(1-Amino-isoquinolin-6-ylamino)-19-cyclopropanesulfonyl-9-methoxy-3-methyl-12-oxa-3,15-diaza-tricyclo[14.3.1.1^6,10]henicosa-1(19),6(21),7,9,16(20),17-hexaene-4,14-dione trifluoroacetic acid salt+Enantiomer]: the inhibition constant (Ki) came to 23 nM. Against the preceding molecule, the Ki is about 41-fold lower.

In turn, `CN1Cc2cc(ccc2S(=O)(=O)C2CC2)NC(=O)COc2cccc(c2)[C@@H](Nc2ccc3c(N)nccc3c2)C1=O` [Example 10, (R)-14-(1-Amino-isoquinolin-6-ylamino)-9-cyclopropanesulfonyl-12-methyl-2-oxa-5,12-diaza-tricyclo[13.3.1.1^6,10]icosa-1(18),6(20),7,9,15 (19),16-hexaene-4,13-dione trifluoroacetic acid salt+Enantiomer] displayed a Ki of 714 nM.

As for `CN1CCc2cc(ccc2OCc2ccccc2)C(Nc2ccc3c(N)ncc(F)c3c2)C(=O)N(C)Cc2cc(ccc2S(=O)(=O)C2CC2)NC1=O` (stereo not drawn) [Example 19, 5-(1-Amino-4-fluoro-isoquinolin-6-ylamino)-9-benzyloxy-19-cyclopropanesulfonyl-3,13-dimethyl-3,13,15-triaza-tricyclo[14.3.1.1^6,10]henicosa-1(19),6(21),7,9,16(20),17-hexaene-4,14-dione, trifluoroacetic acid salt], the inhibitory constant (Ki) was 115 nM.

`CN1Cc2cc(ccc2S(=O)(=O)C2CC2)NC(=O)CCc2cc(ccc2OCC(F)F)[C@@H](Nc2ccc3c(N)ncc(F)c3c2)C1=O` [Example 21, (R)-11-(1-Amino-4-fluoro-isoquinolin-6-ylamino)-16-cyclopropane sulfonyl-7-(2,2-difluoro-ethoxy)-13-methyl-2,13-diaza-tricyclo[13.3.1.1^6,10]icosa-1(19),6,8,10(20),15,17-hexaene-3,12-dione trifluroracetic acid salt]: affinity was put at a Ki of 5 nM.

`CN1Cc2cc(ccc2S(=O)(=O)C2CC2)NC(=O)CCc2cc(ccc2OCC2CC2)[C@@H](Nc2ccc3c(N)ncc(F)c3c2)C1=O` [Example 22, (R)-11-(1-Amino-4-fluoro-isoquinolin-6-ylamino)-16-cyclopropane sulfonyl-7-cyclopropylmethoxy-13-methyl-2,13-diaza-tricyclo[13.3.1.1^6,10]icosa-1(19),6,8,10(20),15,17-hexaene-3,12-dione trifluroracetic acid salt]: affinity was put at a Ki of 5 nM. That is a single-digit nanomolar value.

The molecule `CCCCOc1ccc2cc1CCC(=O)Nc1ccc(S(=O)(=O)C3CC3)c(c1)CN(C)C(=O)[C@@H]2Nc1ccc2c(N)ncc(F)c2c1` [Example 23, (R)-11-(1-Amino-4-fluoro-isoquinolin-6-ylamino)-7-butoxy-16-cyclopropanesulfonyl-13-methyl-2,13-diaza-tricyclo[13.3.1.1^6,10]icosa-1(19),6,8,10(20),15,17-hexaene-3,12-dione trifluroracetic acid salt] gave a Ki of 5 nM. This lies in the single-digit nanomolar range.

On to `CC(C)COc1ccc2cc1CCC(=O)Nc1ccc(S(=O)(=O)C3CC3)c(c1)CN(C)C(=O)[C@@H]2Nc1ccc2c(N)ncc(F)c2c1` [Example 24, (R)-11-(1-Amino-4-fluoro-isoquinolin-6-ylamino)-16-cyclopropanesulfonyl-7-isobutoxy-13-methyl-2,13-diaza-tricyclo[13.3.1.1^6,10]icosa-1(19),6,8,10(20),15,17-hexaene-3,12-dione trifluroracetic acid salt], for which the inhibitory constant (Ki) was determined as 5 nM.

For `CN1Cc2cc(ccc2S(=O)(=O)C2CC2)NC(=O)CCc2cc(ccc2OCC2CCC2)[C@@H](Nc2ccc3c(N)ncc(F)c3c2)C1=O` [Example 25, (R)-11-(1-Amino-4-fluoro-isoquinolin-6-ylamino)-7-cyclobutylmethoxy-16-cyclopropanesulfonyl-13-methyl-2,13-diaza-tricyclo[13.3.1.1^6,10]icosa-1(19),6,8,10(20),15,17-hexaene-3,12-dione trifluroracetic acid salt], the affinity corresponds to a Ki of 6 nM.

As to `CC(C)Oc1ccc2cc1CCC(=O)Nc1ccc(S(=O)(=O)C3CC3)c(c1)CN(C)C(=O)[C@@H]2Nc1ccc2c(N)ncc(F)c2c1` [Example 26, (R)-11-(1-Amino-4-fluoro-isoquinolin-6-ylamino)-16-cyclopropanesulfonyl-7-isopropoxy-13-methyl-2,13-diaza-tricyclo[13.3.1.1^6,10]icosa-1(19),6,8,10(20),15,17-hexaene-3,12-dione trifluroracetic acid salt], the inhibition constant (Ki) came to 5 nM.

Take `CN1Cc2cc(ccc2S(=O)(=O)C2CC2)NC(=O)N(CC2CCC2)CCc2cccc(c2)C(Nc2ccc3c(N)ncc(F)c3c2)C1=O` (stereo not drawn) [Example 27, 5-(1-Amino-4-fluoro-isoquinolin-6-ylamino)-13-cyclobutylmethyl-19-cyclopropanesulfonyl-3-methyl-3,13,15-triaza-tricyclo[14.3.1.1^6,10]henicosa-1(19),6(21),7,9,16(20),17-hexaene-4,14-dione trifluoroacetic acid salt]: the affinity corresponds to a Ki of 148 nM.

The molecule `C[C@@H]1CC(=O)Nc2cccc(c2)[C@@H](CC(=O)O)NC(=O)[C@H](Nc2ccc(C(=N)N)cc2)c2ccc(OCC(F)F)c1c2` [Example 44, trifluoroacetic acid salt] yielded a Ki of 5 nM. Compared with the last molecule, the Ki is about 30-fold lower.

Molecule “(R)-11-(1-Amino-4-fluoro-isoquinolin-6-ylamino)-16-cyclopropane sulfonyl-7-(2,2-difluoro-ethoxy)-13-methyl-2,13-diaza-tricyclo[13.3.1.1^6,10]icosa-1(18),6,8,10(20),15(19),16-hexaene-3,12-dione trifluoroacetic acid salt [Example 33]” registered a Ki of 21 nM.

The molecule “(R)-11-(5-Amino-8-fluoro-naphthalen-2-ylamino)-16-cyclopropanesulfonyl-7-cyclopropyl-13-methyl-2,13-diaza-tricyclo[13.3.1.1^6,10]icosa-1(18),6,8,10(20),15(19),16-hexaene-3,12-dione trifluoroacetic acid salt [Example 36]” had a Ki of 5 nM.
